Data published in US20130165641A1, “6,11-BRIDGED BIARYL MACROLIDES” (Enanta Pharmaceuticals, Inc., priority 2007, published 2013).
Values after ≈ are worked out from the molar mass of the structure shown.

Tested on: MRSA
Assay: MIC by micro-dilution method, MRSA isolates
Format: cell-based, Staphylococcus aureus
Details: compounds of Formula XVI; for MIC MRSA 7662: MRSA isolate 7662; for MIC MRSA 33591: MRSA isolate 33591
Experimental: Susceptibility tests can be used to quantitatively measure the in vitro activity of an antimicrobial agent against a given bacterial isolate. Compounds are tested for in vitro antibacterial activity by a micro-dilution method. Minimal Inhibitory Concentration (MIC) is determined in 96 well microtiter plates utilizing the appropriate broth medium for the observed bacterial isolates. […] The diluted compounds (2 μl/well) are then transferred into sterile, uninoculated medium (0.2 mL) by use of a 96 fixed tip-pipetting station. The inoculum for each bacterial strain is standardized to approximately 5×10^5 CFU/mL by optical comparison to a 0.5 McFarland turbidity standard. The plates are inoculated with 10 μl/well of adjusted bacterial inoculum. The 96 well plates are covered and incubated at 35+/−2° C. for 24 hours in ambient air environment. Following incubation, plate wells are visually examined by Optical Density measurement for the presence of growth (turbidity). The lowest concentration of an antimicrobial agent at which no visible growth occurs is defined as the MIC.
All in vitro testing follows the guidelines described in the Approved Standards M7-A7 protocol, published by the Clinical Laboratory Standards Institute (CLSI).

Row | SMILES | MIC MRSA 7662 | MIC MRSA 33591
1 | CC[C@H]1OC(=O)[C@@](C)(F)C(=O)[C@H](C)[C@@H](O[C@@H]2O[C@H](C)C[C@H](N(C)C)[C@H]2O)[C@@]2(C)C[C@@H](C)C(=NC(=O)OC)[C@H](C)[C@@H](OC/C(=N\OCc3ccc(-n4ccc(N)n4)cn3)CO2)[C@]1(C)O [Example 124] | 4.00 mg/L (≈ 4.49 µM) | 8.00 mg/L (≈ 8.99 µM)
2 | CCC(=O)N=C1[C@H](C)C[C@@]2(C)OC/C(=N/OCc3cnc(-c4cccc(N)n4)s3)CO[C@H]([C@H]1C)[C@](C)(O)[C@@H](CC)OC(=O)[C@@](C)(F)C(=O)[C@H](C)[C@H]2O[C@@H]1O[C@H](C)C[C@H](N(C)C)[C@H]1O [Example 117] | 2 mg/L (≈ 2.21 µM) | 4 mg/L (≈ 4.42 µM)
3 | CCC(=O)N=C1C(C)CC2(C)OCC(=NOCc3ccc(-n4ccc(N)n4)cc3)COC(C1C)C(C)(O)C(CC)OC(=O)C(C)C(=O)C(C)C2OC1OC(C)CC(N(C)C)C1O (centres unmarked) [Example 83] | 2 mg/L (≈ 2.3 µM) | 4 mg/L (≈ 4.6 µM)
4 | CCC(=O)N=C1[C@H](C)C[C@@]2(C)OC/C(=N/OCc3ccc(-c4nc(N)cs4)cc3)CO[C@H]([C@H]1C)[C@](C)(O)[C@@H](CC)OC(=O)[C@H](C)C(=O)[C@H](C)[C@H]2O[C@@H]1O[C@H](C)C[C@H](N(C)C)[C@H]1O [Example 121] | 8 mg/L (≈ 9.03 µM) | 8 mg/L (≈ 9.03 µM)
5 | CCC(=O)N=C1[C@H](C)C[C@@]2(C)OC/C(=N/OCc3ncc(-c4nc(N)cs4)cn3)CO[C@H]([C@H]1C)[C@](C)(O)[C@@H](CC)OC(=O)[C@@](C)(F)C(=O)[C@H](C)[C@H]2O[C@@H]1O[C@H](C)C[C@H](N(C)C)[C@H]1O [Example 132] | 2.00 mg/L (≈ 2.21 µM) | 4.00 mg/L (≈ 4.41 µM)
6 | CCC(=O)N=C1C(C)CC2(C)OCC(=NOCc3ccc(-n4ccc(N)n4)nc3)COC(C1C)C(C)(O)C(CC)OC(=O)C(C)(F)C(=O)C(C)C2OC1OC(C)CC(N(C)C)C1O (centres unmarked) [Example 79] | 2 mg/L (≈ 2.25 µM) | 4 mg/L (≈ 4.5 µM)
7 | CCC(=O)N=C1[C@H](C)C[C@@]2(C)OC/C(=N/OCc3cnc(-c4nccc(N)n4)s3)CO[C@H]([C@H]1C)[C@](C)(O)[C@@H](CC)OC(=O)[C@@](C)(F)C(=O)[C@H](C)[C@H]2O[C@@H]1O[C@H](C)C[C@H](N(C)C)[C@H]1O [Example 131] | 4.00 mg/L (≈ 4.41 µM) | 8.00 mg/L (≈ 8.83 µM)
8 | CCC1OC(=O)C(C)C(=O)C(C)C(OC2OC(C)CC(N(C)C)C2O)C2(C)CC(C)C(=NC(=O)C(C)C)C(C)C(OCC(=NOCc3ccc(-n4ccc(N)n4)cc3F)CO2)C1(C)O (centres unmarked) [Example 98] | 8 mg/L (≈ 8.88 µM) | 8 mg/L (≈ 8.88 µM)
9 | CC[C@H]1OC(=O)[C@@](C)(F)C(=O)[C@H](C)[C@@H](O[C@@H]2O[C@H](C)C[C@H](N(C)C)[C@H]2O)[C@@]2(C)C[C@@H](C)C(=NC(=O)C(C)C)[C@H](C)[C@@H](OC/C(=N\OCc3ccc(-n4ccc(N)n4)cc3Cl)CO2)[C@]1(C)O [Example 116] | 4 mg/L (≈ 4.28 µM) | 4 mg/L (≈ 4.28 µM)
10 | CCC(=O)N=C1[C@H](C)C[C@@]2(C)OC/C(=N/OCc3ccc(-c4nc(N)cs4)nc3)CO[C@H]([C@H]1C)[C@](C)(O)[C@@H](CC)OC(=O)[C@@](C)(F)C(=O)[C@H](C)[C@H]2O[C@@H]1O[C@H](C)C[C@H](N(C)C)[C@H]1O [Example 128] | 4.00 mg/L (≈ 4.42 µM) | 8.00 mg/L (≈ 8.84 µM)
11 | CCC1OC(=O)C(C)C(=O)C(C)C(OC2OC(C)CC(N(C)C)C2O)C2(C)CC(C)C(=NC(C)=O)C(C)C(OCC(=NOCc3ccc(-n4ccc(N)n4)cc3Cl)CO2)C1(C)O (centres unmarked) [Example 88] | 8 mg/L (≈ 8.99 µM) | 8 mg/L (≈ 8.99 µM)
12 | CC[C@H]1OC(=O)[C@@](C)(F)C(=O)[C@H](C)[C@@H](O[C@@H]2O[C@H](C)C[C@H](N(C)C)[C@H]2O)[C@@]2(C)C[C@@H](C)C(=NC(C)=O)[C@H](C)[C@@H](OC/C(=N\OCc3ccc(-c4csc(N)n4)cn3)CO2)[C@]1(C)O [Example 104] | 8 mg/L (≈ 8.98 µM) | 8 mg/L (≈ 8.98 µM)
13 | CCC(=O)N=C1[C@H](C)C[C@@]2(C)OC/C(=N/OCc3ccc(-c4csc(N)n4)cc3)CO[C@H]([C@H]1C)[C@](C)(O)[C@@H](CC)OC(=O)[C@@](C)(F)C(=O)[C@H](C)[C@H]2O[C@@H]1O[C@H](C)C[C@H](N(C)C)[C@H]1O [Example 122] | 4.00 mg/L (≈ 4.42 µM) | 4.00 mg/L (≈ 4.42 µM)
14 | CCC(=O)N=C1[C@H](C)C[C@@]2(C)OC/C(=N/OCc3ncc(-c4cccc(N)n4)s3)CO[C@H]([C@H]1C)[C@](C)(O)[C@@H](CC)OC(=O)[C@@](C)(F)C(=O)[C@H](C)[C@H]2O[C@@H]1O[C@H](C)C[C@H](N(C)C)[C@H]1O [Example 110] | 2 mg/L (≈ 2.21 µM) | 2 mg/L (≈ 2.21 µM)
15 | CCC(=O)N=C1C(C)CC2(C)OCC(=NOCc3ccc(-n4ccc(N)n4)cn3)COC(C1C)C(C)(O)C(CC)OC(=O)C(C)(F)C(=O)C(C)C2OC1OC(C)CC(N(C)C)C1O (centres unmarked) [Example 92] | 2 mg/L (≈ 2.25 µM) | 4 mg/L (≈ 4.5 µM)
16 | CCC(=O)N=C1[C@H](C)C[C@@]2(C)OC/C(=N/OCc3ccc(-c4nccc(N)n4)cn3)CO[C@H]([C@H]1C)[C@](C)(O)[C@@H](CC)OC(=O)[C@@](C)(F)C(=O)[C@H](C)[C@H]2O[C@@H]1O[C@H](C)C[C@H](N(C)C)[C@H]1O [Example 113] | 4 mg/L (≈ 4.44 µM) | 8 mg/L (≈ 8.89 µM)
17 | CCC1OC(=O)C(C)C(=O)C(C)C(OC2OC(C)CC(N(C)C)C2O)C2(C)CC(C)C(=NC(=O)C(C)C)C(C)C(OCC(=NOCc3ccc(-n4ccc(N)n4)cc3)CO2)C1(C)O (centres unmarked) [Example 90] | 8 mg/L (≈ 9.06 µM) | 8 mg/L (≈ 9.06 µM)
18 | CCC(=O)N=C1[C@H](C)C[C@@]2(C)OC/C(=N/OCc3ccc(-c4csc(N)n4)cn3)CO[C@H]([C@H]1C)[C@](C)(O)[C@@H](CC)OC(=O)[C@@](C)(F)C(=O)[C@H](C)[C@H]2O[C@@H]1O[C@H](C)C[C@H](N(C)C)[C@H]1O [Example 125] | 4 mg/L (≈ 4.42 µM) | 8 mg/L (≈ 8.84 µM)
19 | CC[C@H]1OC(=O)[C@@](C)(F)C(=O)[C@H](C)[C@@H](O[C@@H]2O[C@H](C)C[C@H](N(C)C)[C@H]2O)[C@@]2(C)C[C@@H](C)C(=NC(C)=O)[C@H](C)[C@@H](OC/C(=N\OCc3csc(-c4cccc(N)n4)n3)CO2)[C@]1(C)O [Example 136] | 2.00 mg/L (≈ 2.24 µM) | 2.00 mg/L (≈ 2.24 µM)
20 | CC[C@H]1OC(=O)[C@@](C)(F)C(=O)[C@H](C)[C@@H](O[C@@H]2O[C@H](C)C[C@H](N(C)C)[C@H]2O)[C@@]2(C)C[C@@H](C)C(=NC(C)=O)[C@H](C)[C@@H](OC/C(=N\OCc3ccc(-c4nccc(N)n4)cn3)CO2)[C@]1(C)O [Example 102] | 8 mg/L (≈ 9.03 µM) | 8 mg/L (≈ 9.03 µM)
21 | CCC(=O)N=C1[C@H](C)C[C@@]2(C)OC/C(=N/OCc3ccc(-c4nsc(N)n4)cc3)CO[C@H]([C@H]1C)[C@](C)(O)[C@@H](CC)OC(=O)[C@@](C)(F)C(=O)[C@H](C)[C@H]2O[C@@H]1O[C@H](C)C[C@H](N(C)C)[C@H]1O [Example 127] | 2.00 mg/L (≈ 2.21 µM) | 4.00 mg/L (≈ 4.42 µM)
22 | CCC(=O)N=C1[C@H](C)C[C@@]2(C)OC/C(=N/OCc3ccc(-c4nc(N)cs4)cn3)CO[C@H]([C@H]1C)[C@](C)(O)[C@@H](CC)OC(=O)[C@H](C)C(=O)[C@H](C)[C@H]2O[C@@H]1O[C@H](C)C[C@H](N(C)C)[C@H]1O [Example 119] | 4 mg/L (≈ 4.51 µM) | 8 mg/L (≈ 9.02 µM)
